The source of these data is patent US9981912B2, “Cocrystal of lorcaserin, preparation methods, pharmaceutical compositions and uses thereof” (priority 2014, dated 2018).

The conditions of series [1]: disclosed in WO2006/069363A2; cited from earlier work.
Series [2] in a line: Solubility in pure water at 25° C. (Test Example 1).
Series [3] is described as follows: Storage stability at 25° C., 60% RH for 6 months. It counts as physicochemical.

Where a name gives a salt, the structure may show the parent alone. Bounds are passed on as bounds.

What is called solubility is how much of the substance goes into solution per volume.

Turning to `C[C@H]1CNCCc2ccc(Cl)cc21` [lorcaserin hydrochloride hemihydrate, (R)-8-chloro-1-methyl-2,3,4,5-tetrahydro-1H-3-benzazepine], the hygroscopicity entry in series [1] is given as “poor hygroscopicity”. In addition, in series [1], the “stability among crystalline Forms I, II and III” value is on record as “the most stable form”. Besides, the solubility is greater than 200 mg/mL in series [2] (in water, 25° C., listed as Lorcaserin hydrochloride hemihydrate (the known)) and greater than 200 mg/mL in series [2] (pure water, 25 °C, water, thermodynamic from solid).
For “cocrystal of lorcaserin hydrochloride and benzoic acid [the cocrystal]”, the “purity and crystalline form after storage” value in series [3] is “unchanged”.
